According to patent publication US9708312B2, “Dihydropyrimidinoisoquinolinones and pharmaceutical compositions thereof for the treatment of inflammatory disorders (GPR84 antagonists)” (GALAPAGOS NV, priority 2012, dated 2017):

Target: T1, GPR84 (Homo sapiens, UniProt Q9NQS5)
T1 construct: expressed in transfected cells
Test: GPR84 [35S]GTPγS binding assay, HEPES buffer
Format: biochemical
Settings: 3,3′ di indolylmethane at EC80, membranes from stable cell line over expressing GPR84
Outline: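 Membranes from a stable GPR84-overexpressing cell line (20 μg/well), pre-incubated with 0.1 μM GDP for 15 min at 4° C, mixed with 0.1 nM [35S]GTPγS and WGA SpA beads in 20 mM HEPES pH 7.4, 5 mM MgCl2, 250 mM NaCl, 0.05% BSA, 75 ug/mL saponin. Incubated 90 min at room temperature; scintillation proximity read after centrifugation.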

T1 sequence (Q9NQS5 whole entry): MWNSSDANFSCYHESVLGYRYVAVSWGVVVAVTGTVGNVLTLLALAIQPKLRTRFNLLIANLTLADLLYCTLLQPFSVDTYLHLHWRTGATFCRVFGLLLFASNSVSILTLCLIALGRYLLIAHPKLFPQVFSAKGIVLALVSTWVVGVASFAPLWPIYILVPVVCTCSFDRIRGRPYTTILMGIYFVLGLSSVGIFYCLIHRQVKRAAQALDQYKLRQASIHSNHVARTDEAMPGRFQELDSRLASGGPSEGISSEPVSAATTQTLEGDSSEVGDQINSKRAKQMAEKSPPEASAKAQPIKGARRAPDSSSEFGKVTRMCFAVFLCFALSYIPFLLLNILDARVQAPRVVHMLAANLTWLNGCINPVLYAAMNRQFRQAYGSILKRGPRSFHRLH

With `O=C(COc1ccc2c(c1)CCn1c-2cc(OCC2COc3ccccc3O2)nc1=O)N1CCCC1` (stereo not drawn) [compound 74, 2-(2,3-dihydro-benzo[1,4]dioxin-2-ylmethoxy)-9-(2-oxo-2-pyrrolidin-1-yl-ethoxy)-6,7-dihydro-pyrimido[6,1-a]isoquinolin-4-one] as the compound, how does the IC50 read?
The IC50 was 100 to 500 nM.

How did the IC50 turn out when `O=c1nc(OC[C@@H]2COc3ncccc3O2)cc2n1CCc1cc(OCc3ncco3)ccc1-2` [compound 190] was run?
Its IC50 is 100 to 500 nM.

System: human neutrophils
Test: Human neutrophil migration assay (embelin-induced chemotaxis)
Format: cell-based
Settings: not given
Method: 2.1. Human Neutrophil Migration Assay
The effect of agonists or antagonists for GPR84 can therefore be assayed in a neutrophil migration test. In the neutrophil migration assay, neutrophils, freshly isolated from buffy coats from human volunteers, are treated with a compound for 30 min Subsequently, the neutrophils are transferred to the upper wells of a Corning HTS transwell 96 permeable support system, of which the lower wells are filled with a embelin solution at EC80 (concentration which gives 80% of the activity of GPR84). After 1 h of incubation, migration of the neutrophils towards embelin in the lower compartment can be quantified by measuring the ATP-content of the lower wells using the ATPlite luminescence ATP detection assay system (Perkin Elmer, Cat. No.: 436110).
2.1.1 Isolation of Neutrophils from Human Buffy Coat
A human buffy coat is diluted with an equal volume of ice cold DPBS. 20 mL of the diluted buffy coat is gently mixed with 4 mL of ACD buffer (140 mM citric acid, 200 mM sodium citrate and 220 mM dextrose). Then, 12 mL of the 6% dextran/0.9% NaCl solution (15 g dextran T2000 and 2.25 g NaCl dissolved in 250 mL H2O) is added to the mixture and the samples are inverted gently up to 20 times. The total volume was transferred to a new recipient and incubated at room temperature for 1 h for complete separation of the two phases to occur. The yellowish supernatant is then transferred to a clean centrifugation tube and centrifuged for 12 min at 1300 rpm and 4° C. After centrifugation, the supernatant is discarded and the remaining cell pellet is rapidly resuspended in 12 mL of ice-cold H2O for red blood cell lysis to occur. After 20 seconds, 4 mL of ice-cold 0.6 M KCl is added. Samples are mixed carefully and centrifuged for 6 min at 1300 rpm, 4° C. The supernatant is discarded and the red blood cell lysis procedure is repeated one more time. Subsequently, the cell pellet is resuspended in 4 mL of DPBS and layered over 5 mL of Lymphoprep (Nycomed Pharma, Cat. No.: 1114545) in a 15 mL centrifuge tube. After centrifugation for 12 min at 1300 rpm, 4° C., the supernatant is removed and the cell pellet, containing the neutrophils, is resuspended in 25 mL chemotaxis buffer (RPMI 1640 medium, supplemented with 10 mM HEPES; freshly made for each experiment)
A cell suspension of 8.9×10^6 cells per milliliter is prepared. 20 μL of compound solution in chemotaxis buffer is added to 180 μL cell suspension. The mixture is incubated at 37° C. for 30 min with intermediate resuspension of the cells after 15 min Following this, 70 μL cell suspension is transferred to the upper compartment of a Corning HTS transwell 96 permeable support system with 5.0 μm pore size polycarbonate membrane (Corning, Cat. No.: 3387). The receiver well of the transwell system is then filled with 200 μL chemotaxis buffer containing compound and chemotactic agent (embelin). After incubation at 37° C. in 5% CO2 for 1 h, the upper plate of the transwell system is removed and the cell suspension in the receiver plate is transferred to a 96-well V-bottom plate. 50 μL of DPBS is added to the receiver plate to prevent remaining cells from drying out. The V-bottom plate is centrifuged for 6 min at 1500 rpm. The supernatant is removed and the cells are resuspended in 50 μL DPBS. The cells are then transferred back to the receiver plate of the transwell system. After this, 100 μL ATPlite solution (Perkin Elmer, Cat. No: 436110) was added to the cells. The plate is incubated for 10 min in the dark, while shaking. […] of cell lysate is then transferred to a white 96-well plate and luminescence is measured. The detected luminescent signal is considered as linearely related to the number of cells having migrated from the upper well to the receiver well.

For `c1ccc2c(Cc3c[nH]c4ccccc34)c[nH]c2c1` [3,3′ di indolylmethane, reference compound], which “neutrophil chemotaxis induced by GPR84 agonists” value is on record?
Its value is “induce neutrophil chemotaxis”.

With `CCCCCCCCCC(=O)[O-].[Na+]` [sodiumdecanoate, reference compound] as the compound, how does the “neutrophil chemotaxis induced by GPR84 agonists” value read?
The value was “induce neutrophil chemotaxis”.

Same assay, conditions: Neutrophil; neutrophils from human buffy coats; embelin at EC80

How did the IC50 turn out when `O=c1nc(OCC2CCCO2)cc2n1CCc1cc(OCCOc3ccccc3)ccc1-2` (stereo not drawn) [compound 15, 9-(2-phenoxy-ethoxy)-2-(tetrahydro-furan-2-ylmethoxy)-6,7-dihydro-pyrimido[6,1-a]isoquinolin-4-one] was run?
Its IC50 is 0.01 to 100 nM.

For `O=c1nc(OCC2CCCO2)cc2n1CCc1cc(OCC3COc4ccccc4O3)ccc1-2` (stereo not drawn) [compound 18, 9-(2,3-dihydro-benzo[1,4]dioxin-2-ylmethoxy)-2-(tetrahydro-furan-2-ylmethoxy)-6,7-dihydro-pyrimido[6,1-a]isoquinolin-4-one], which IC50 is on record?
Its IC50 is 0.01 to 100 nM.

With `O=c1nc(OCC2CCCO2)cc2n1CCc1cc(OCc3cccc([N+](=O)[O-])c3)ccc1-2` (stereo not drawn) [compound 32, 9-(3-nitro-benzyloxy)-2-(tetrahydro-furan-2-ylmethoxy)-6,7-dihydro-pyrimido[6,1-a]isoquinolin-4-one] as the compound, how does the IC50 read?
Its IC50 is 0.01 to 100 nM.

How did the IC50 turn out when `O=c1nc(OCC2CCCO2)cc2n1CCc1cc(OCc3cccc(-c4cncnc4)n3)ccc1-2` (stereo not drawn) [compound 57, 9-(6-pyrimidin-5-yl-pyridin-2-ylmethoxy)-2-(tetrahydro-furan-2-ylmethoxy)-6,7-dihydro-pyrimido[6,1-a]isoquinolin-4-one] was run?
Its IC50 is 100 to 500 nM.

For `O=C(COc1ccc2c(c1)CCn1c-2cc(OCC2COc3ccccc3O2)nc1=O)N1CCCC1` (stereo not drawn) [compound 74, 2-(2,3-dihydro-benzo[1,4]dioxin-2-ylmethoxy)-9-(2-oxo-2-pyrrolidin-1-yl-ethoxy)-6,7-dihydro-pyrimido[6,1-a]isoquinolin-4-one], which IC50 is on record?
Its IC50 is 0.01 to 100 nM.

For `O=c1nc(OCC2COc3ccccc3O2)cc2n1CCc1cc(OCc3nnn[nH]3)ccc1-2` (stereo not drawn) [compound 76, 2-(2,3-dihydro-benzo[1,4]dioxin-2-ylmethoxy)-9-(1H-tetrazol-5-ylmethoxy)-6,7-dihydro-pyrimido[6,1-a]isoquinolin-4-one], which IC50 is on record?
Its IC50 is 0.01 to 100 nM.

With `O=c1nc(OCC2COc3ncccc3O2)cc2n1CCc1cc(OCc3ncco3)ccc1-2` (stereo not drawn) [compound 86, 2-(2,3-dihydro-[1,4]dioxino[2,3-b]pyridin-2-ylmethoxy)-9-(oxazol-2-ylmethoxy)-6,7-dihydro-pyrimido[6,1-a]isoquinolin-4-one] as the compound, how does the IC50 read?
The IC50 was 0.01 to 100 nM.

`N#CCOc1ccc2c(c1)CCn1c-2cc(OCC2COc3ncccc3O2)nc1=O` (stereo not drawn) [compound 89, [2-(2,3-dihydro-[1,4]dioxino[2,3-b]pyridin-2-ylmethoxy)-4-oxo-6,7-dihydro-4H-pyrimido[6,1-a]isoquinolin-9-yloxy]-acetonitrile] was tested. Which IC50 did it give?
Its IC50 is 0.01 to 100 nM.

Which IC50 does the source give for `O=c1nc(OCC2COc3ncccc3O2)cc2n1CCc1cc(OCc3ccccn3)ccc1-2` (stereo not drawn) [compound 91, 2-(2,3-dihydro-[1,4]dioxino[2,3-b]pyridin-2-ylmethoxy)-9-(pyridin-2-ylmethoxy)-6,7-dihydro-pyrimido[6,1-a]isoquinolin-4-one] here?
Its IC50 is 0.01 to 100 nM.

For `O=c1nc(OCC2COc3ncccc3O2)cc2n1CCc1cc(OCc3nnn[nH]3)ccc1-2` (stereo not drawn) [compound 93, 2-(2,3-dihydro-[1,4]dioxino[2,3-b]pyridin-2-ylmethoxy)-9-(1H-tetrazol-5-ylmethoxy)-6,7-dihydro-pyrimido[6,1-a]isoquinolin-4-one], which IC50 is on record?
Its IC50 is 100 to 500 nM.

For `CC(C)(O)C#Cc1ccc2c(c1)CCn1c-2cc(OCC2COc3ncccc3O2)nc1=O` (stereo not drawn) [compound 136, 2-(2,3-dihydro-[1,4]dioxino[2,3-b]pyridin-2-ylmethoxy)-9-(3-hydroxy-3-methyl-but-1-ynyl)-6,7-dihydro-pyrimido[6,1-a]isoquinolin-4-one], which IC50 is on record?
The IC50 was 0.01 to 100 nM.

How did the IC50 turn out when `O=c1nc(OCC2COc3ncccc3O2)cc2n1CCc1cc(-c3cn[nH]c3)ccc1-2` (stereo not drawn) [compound 180, 2-(2,3-dihydro-[1,4]dioxino[2,3-b]pyridin-2-ylmethoxy)-9-(1H-pyrazol-4-yl)-6,7-dihydro-pyrimido[6,1-a]isoquinolin-4-one] was run?
The IC50 was 0.01 to 100 nM.

How did the IC50 turn out when `CC(O)C#Cc1ccc2c(c1)CCn1c-2cc(OCC2COc3ncccc3O2)nc1=O` (stereo not drawn) [compound 181, 2-(2,3-dihydro-[1,4]dioxino[2,3-b]pyridin-2-ylmethoxy)-9-(3-hydroxy-but-1-ynyl)-6,7-dihydro-pyrimido[6,1-a]isoquinolin-4-one] was run?
The IC50 was 0.01 to 100 nM.

`CCC(O)C#Cc1ccc2c(c1)CCn1c-2cc(OCC2COc3ncccc3O2)nc1=O` (stereo not drawn) [compound 182, 2-(2,3-dihydro-[1,4]dioxino[2,3-b]pyridin-2-ylmethoxy)-9-(3-hydroxy-pent-1-ynyl)-6,7-dihydro-pyrimido[6,1-a]isoquinolin-4-one] was tested. Which IC50 did it give?
Its IC50 is 0.01 to 100 nM.

For `CCCC(O)C#Cc1ccc2c(c1)CCn1c-2cc(OCC2COc3ncccc3O2)nc1=O` (stereo not drawn) [compound 183, 2-(2,3-dihydro-[1,4]dioxino[2,3-b]pyridin-2-ylmethoxy)-9-(3-hydroxy-hex-1-ynyl)-6,7-dihydro-pyrimido[6,1-a]isoquinolin-4-one], which IC50 is on record?
Its IC50 is 0.01 to 100 nM.

Which IC50 does the source give for `CC(C)C(O)C#Cc1ccc2c(c1)CCn1c-2cc(OCC2COc3ncccc3O2)nc1=O` (stereo not drawn) [compound 188, 2-(2,3-dihydro-[1,4]dioxino[2,3-b]pyridin-2-ylmethoxy)-9-(3-hydroxy-4-methyl-pent-1-ynyl)-6,7-dihydro-pyrimido[6,1-a]isoquinolin-4-one] here?
The IC50 was 0.01 to 100 nM.

How did the IC50 turn out when `O=c1nc(OC[C@H]2COc3ncccc3O2)cc2n1CCc1cc(OCc3ncco3)ccc1-2` [compound 189] was run?
The IC50 was 0.01 to 100 nM.

Which IC50 does the source give for `O=c1nc(OC[C@@H]2COc3ncccc3O2)cc2n1CCc1cc(OCc3ncco3)ccc1-2` [compound 190] here?
The IC50 was 0.01 to 100 nM.

For `O=c1nc(OCC2COc3ncccc3O2)cc2n1CCc1cc(COCCN3CCOCC3)ccc1-2` (stereo not drawn) [compound 192, 2-(2,3-dihydro-[1,4]dioxino[2,3-b]pyridin-2-ylmethoxy)-9-(2-morpholin-4-yl-ethoxymethyl)-6,7-dihydro-pyrimido[6,1-a]isoquinolin-4-one], which IC50 is on record?
Its IC50 is 0.01 to 100 nM.

Which IC50 does the source give for `O=c1nc(OCC2COc3ncccc3O2)cc2n1CCc1cc(C#CCNCc3ccccc3)ccc1-2` (stereo not drawn) [compound 193, 9-(3-benzylamino-prop-1-ynyl)-2-(2,3-dihydro-[1,4]dioxino[2,3-b]pyridin-2-ylmethoxy)-6,7-dihydro-pyrimido[6,1-a]isoquinolin-4-one] here?
Its IC50 is 0.01 to 100 nM.

For `O=c1nc(OCC2COc3ncccc3O2)cc2n1CCc1cc(CN3CCCCC3)ccc1-2` (stereo not drawn) [compound 199, 2-(2,3-dihydro-[1,4]dioxino[2,3-b]pyridin-2-ylmethoxy)-9-piperidin-1-ylmethyl-6,7-dihydro-pyrimido[6,1-a]isoquinolin-4-one], which IC50 is on record?
The IC50 was 0.01 to 100 nM.

`CC1(COCc2ccc3c(c2)CCn2c-3cc(OCC3COc4ncccc4O3)nc2=O)COC1` (stereo not drawn) [compound 200, 2-(2,3-dihydro-[1,4]dioxino[2,3-b]pyridin-2-ylmethoxy)-9-(3-methyl-oxetan-3-ylmethoxymethyl)-6,7-dihydro-pyrimido[6,1-a]isoquinolin-4-one] was tested. Which IC50 did it give?
The IC50 was 0.01 to 100 nM.

`O=c1nc(OCC2COc3ncccc3O2)cc2n1CCc1cc(COC3COC3)ccc1-2` (stereo not drawn) [compound 202, 2-(2,3-dihydro-[1,4]dioxino[2,3-b]pyridin-2-ylmethoxy)-9-(oxetan-3-yloxymethyl)-6,7-dihydro-pyrimido[6,1-a]isoquinolin-4-one] was tested. Which IC50 did it give?
Its IC50 is 0.01 to 100 nM.
